What was measured:
Assay type in all cases: in vivo
[1] = tested on: barnyardgrass (Echinochloa crus-galli); assay: Test A preemergence barnyardgrass; conditions: Echinochloa crus-galli, pre-emergence, 240 h, 0 to 100 scale, 0 no effect, 100 complete control, read-out: Barnyardgrass plant response rating; for pest or weed control at 125 g/ha: 125 g ai/ha; for pest or weed control at 500 g/ha: 500 g ai/ha
Procedure, shortened: (§1)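 Seeds sown in loam–sand blend received a directed preemergence soil spray; postemergence plants (2–10 cm, one- to two-leaf stage) were sprayed in the same soil. Chemicals were formulated in non-phytotoxic solvent with surfactant. After ~10 d in greenhouse, injury was rated visually against untreated controls, 0 (no effect) to 100 (complete control).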

[2] = tested on: kochia (Kochia scoparia); assay: Test A preemergence kochia; conditions: Bassia scoparia, pre-emergence, 240 h, 0 to 100 scale, 0 no effect, 100 complete control, read-out: Kochia plant response rating; for pest or weed control at 125 g/ha: 125 g ai/ha; for pest or weed control at 500 g/ha: 500 g ai/ha
Procedure, shortened: as §1

[3] = tested on: ragweed (common ragweed, Ambrosia elatior); assay: Test A preemergence ragweed; conditions: Ambrosia artemisiifolia, pre-emergence, 240 h, 0 to 100 scale, 0 no effect, 100 complete control, read-out: Ragweed plant response rating; for pest or weed control at 125 g/ha: 125 g ai/ha; for pest or weed control at 500 g/ha: 500 g ai/ha
Procedure, shortened: as §1

[4] = tested on: ryegrass, Italian (Italian ryegrass, Lolium multiflorum); assay: Test A preemergence ryegrass, Italian; conditions: Lolium multiflorum, pre-emergence, 240 h, 0 to 100 scale, 0 no effect, 100 complete control, read-out: Ryegrass, Italian plant response rating; for pest or weed control at 125 g/ha: 125 g ai/ha; for pest or weed control at 500 g/ha: 500 g ai/ha
Procedure, shortened: as §1

[5] = tested on: foxtail, giant (giant foxtail, Setaria faberii); assay: Test A preemergence foxtail, giant; conditions: Setaria faberi, pre-emergence, 240 h, 0 to 100 scale, 0 no effect, 100 complete control, read-out: Foxtail, Giant plant response rating; for pest or weed control at 125 g/ha: 125 g ai/ha; for pest or weed control at 500 g/ha: 500 g ai/ha
Procedure, shortened: as §1

[6] = tested on: pigweed (Amaranthus retroflexus); assay: Test A preemergence pigweed; conditions: Amaranthus retroflexus, pre-emergence, 240 h, 0 to 100 scale, 0 no effect, 100 complete control, read-out: Pigweed plant response rating; for pest or weed control at 125 g/ha: 125 g ai/ha; for pest or weed control at 500 g/ha: 500 g ai/ha
Procedure, shortened: as §1

[7] = tested on: barnyardgrass (Echinochloa crus-galli); assay: Test A postemergence barnyardgrass; conditions: Echinochloa crus-galli, post-emergence, 240 h, 0 to 100 scale, 0 is no effect, 100 is complete control, read-out: Plant response rating, Barnyardgrass; for pest or weed control at 125 g/ha: 125 g ai/ha; for pest or weed control at 500 g/ha: 500 g ai/ha
Procedure, shortened: as §1

[8] = tested on: kochia (Kochia scoparia); assay: Test A postemergence kochia; conditions: Bassia scoparia, post-emergence, 240 h, 0 to 100 scale, 0 is no effect, 100 is complete control, read-out: Plant response rating, Kochia; for pest or weed control at 125 g/ha: 125 g ai/ha; for pest or weed control at 500 g/ha: 500 g ai/ha
Procedure, shortened: as §1

[9] = tested on: ragweed (common ragweed, Ambrosia elatior); assay: Test A postemergence ragweed; conditions: Ambrosia artemisiifolia, post-emergence, 240 h, 0 to 100 scale, 0 is no effect, 100 is complete control, read-out: Plant response rating, Ragweed; for pest or weed control at 125 g/ha: 125 g ai/ha; for pest or weed control at 500 g/ha: 500 g ai/ha
Procedure, shortened: as §1

[10] = tested on: ryegrass, Italian (Italian ryegrass, Lolium multiflorum); assay: Test A postemergence ryegrass, Italian; conditions: Lolium multiflorum, post-emergence, 240 h, 0 to 100 scale, 0 is no effect, 100 is complete control, read-out: Plant response rating, Ryegrass, Italian; for pest or weed control at 125 g/ha: 125 g ai/ha; for pest or weed control at 500 g/ha: 500 g ai/ha
Procedure, shortened: as §1

[11] = tested on: foxtail, giant (giant foxtail, Setaria faberii); assay: Test A postemergence foxtail, giant; conditions: Setaria faberi, post-emergence, 240 h, 0 to 100 scale, 0 is no effect, 100 is complete control, read-out: Plant response rating, Foxtail, Giant; for pest or weed control at 125 g/ha: 125 g ai/ha; for pest or weed control at 500 g/ha: 500 g ai/ha
Procedure, shortened: as §1

[12] = tested on: pigweed (Amaranthus retroflexus); assay: Test A postemergence pigweed; conditions: Amaranthus retroflexus, post-emergence, 240 h, 0 to 100 scale, 0 is no effect, 100 is complete control, read-out: Plant response rating, Pigweed; for pest or weed control at 125 g/ha: 125 g ai/ha; for pest or weed control at 500 g/ha: 500 g ai/ha
Procedure, shortened: as §1

[13] = tested on: wheat (Triticum aestivum); assay: Test A postemergence wheat; conditions: Triticum aestivum, post-emergence, 240 h, 0 to 100 scale, 0 is no effect, 100 is complete control, read-out: Plant response rating, Wheat; for plant injury at 125 g/ha: 125 g ai/ha; for plant injury at 500 g/ha: 500 g ai/ha
Procedure, shortened: as §1

[14] = tested on: corn (Zea mays); assay: Test A postemergence corn; conditions: Zea mays, post-emergence, 240 h, 0 to 100 scale, 0 is no effect, 100 is complete control; for Corn plant response rating (crop injury, 0 = no effect, 100 = complete kill) at 125 g/ha: 125 g ai/ha; for Corn plant response rating (crop injury, 0 = no effect, 100 = complete kill) at 500 g/ha: 500 g ai/ha
Procedure, shortened: as §1

[15] = tested on: blackgrass (Alopecurus myosuroides); assay: Test A postemergence blackgrass; conditions: Alopecurus myosuroides, post-emergence, 240 h, 0 to 100 scale, 0 is no effect, 100 is complete control, read-out: Plant response rating, Blackgrass; for pest or weed control at 125 g/ha: 125 g ai/ha; for pest or weed control at 500 g/ha: 500 g ai/ha
Procedure, shortened: as §1

[16] = tested on: galium (catchweed bedstraw, Galium aparine); assay: Test A postemergence galium; conditions: Galium, post-emergence, 240 h, 0 to 100 scale, 0 is no effect, 100 is complete control, read-out: Plant response rating, Galium; for pest or weed control at 125 g/ha: 125 g ai/ha; for pest or weed control at 500 g/ha: 500 g ai/ha
Procedure, shortened: as §1

[17] = tested on: rice (Oryza sativa); assay: Test B flooded paddy test rice; conditions: Oryza sativa, Table B, Flood, 250 g ai/ha, scale 0 to 100, read-out: Plant response rating
Procedure, shortened: (§2)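 Water-applied paddy treatment: compound dosed into 3 cm flood on 2-leaf plants, read visually versus controls after 13 to 15 d.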

[18] = tested on: sedge, umbrella (small-flower umbrella sedge, Cyperus difformis); assay: Test B flooded paddy test sedge, umbrella; conditions: Cyperus difformis, Table B, Flood, 250 g ai/ha, scale 0 to 100, read-out: Plant response rating
Procedure, shortened: as §2

[19] = tested on: ducksalad (Heteranthera limosa); assay: Test B flooded paddy test ducksalad; conditions: Heteranthera limosa, Table B, Flood, 250 g ai/ha, scale 0 to 100, read-out: Plant response rating
Procedure, shortened: as §2

[20] = tested on: barnyardgrass (Echinochloa crus-galli); assay: Test B flooded paddy test barnyardgrass; conditions: Echinochloa crus-galli, Table B, Flood, 250 g ai/ha, scale 0 to 100, read-out: Plant response rating
Procedure, shortened: as §2

| SMILES | pest or weed control at 125 g/ha [1] | pest or weed control at 500 g/ha [1] | pest or weed control at 125 g/ha [2] | pest or weed control at 500 g/ha [2] | pest or weed control at 125 g/ha [3] | pest or weed control at 500 g/ha [3] | pest or weed control at 125 g/ha [4] | pest or weed control at 500 g/ha [4] | pest or weed control at 125 g/ha [5] | pest or weed control at 500 g/ha [5] | pest or weed control at 125 g/ha [6] | pest or weed control at 500 g/ha [6] | pest or weed control at 125 g/ha [7] | pest or weed control at 500 g/ha [7] | pest or weed control at 125 g/ha [8] | pest or weed control at 500 g/ha [8] | pest or weed control at 125 g/ha [9] | pest or weed control at 500 g/ha [9] | pest or weed control at 125 g/ha [10] | pest or weed control at 500 g/ha [10] | other results |
| --- | --- | --- | --- | --- | --- | --- | --- | --- | --- | --- | --- | --- | --- | --- | --- | --- | --- | --- | --- | --- | --- |
| CN1CC[C@H](c2ccc(F)cc2)[C@@H](C(=O)Nc2cccc(F)c2F)C1=O [Compound 52, (3S,4S)—N-(2,3-difluorophenyl)-4-(4-fluorophenyl)-1-methyl-2-oxo-3-piperidinecarboxamide] | 90% | 90% | 0% | 20% | 20% | 30% | 20% | 30% | 90% | 90% | 30% | 80% | 70% | 90% | 0% | 20% | 0% | 0% | 0% | 20% | pest or weed control at 125 g/ha [11]: 80%; pest or weed control at 500 g/ha [11]: 80%; pest or weed control at 125 g/ha [12]: 0%; pest or weed control at 500 g/ha [12]: 0%; plant injury at 125 g/ha [13]: 0%; plant injury at 500 g/ha [13]: 20%; Corn plant response rating (crop injury, 0 = no effect, 100 = complete kill) at 125 g/ha [14]: 0%; Corn plant response rating (crop injury, 0 = no effect, 100 = complete kill) at 500 g/ha [14]: 10%; pest or weed control at 125 g/ha [15]: 0%; pest or weed control at 500 g/ha [15]: 0%; pest or weed control at 125 g/ha [16]: 0%; pest or weed control at 500 g/ha [16]: 50%; plant injury at 250 g/ha [17]: 0%; pest or weed control at 250 g/ha [18]: 0%; pest or weed control at 250 g/ha [19]: 100%; pest or weed control at 250 g/ha [20]: 30% |
| CN1CC[C@H](c2ccc(F)cc2)[C@@H](C(=O)Nc2ccccc2C(F)(F)F)C1=O [Compound 53, (3S,4S)-4-(4-fluorophenyl)-1-methyl-2-oxo-N-[2-(trifluoromethyl)phenyl]-3-piperidinecarboxamide] | 0% | 80% | 0% | 0% | 0% | 0% | 0% | 0% | 0% | 90% | 0% | 50% | 0% | 0% | 0% | 0% | 0% | 0% | 0% | 0% | pest or weed control at 125 g/ha [11]: 0%; pest or weed control at 500 g/ha [11]: 20%; pest or weed control at 125 g/ha [12]: 0%; pest or weed control at 500 g/ha [12]: 0%; plant injury at 125 g/ha [13]: 0%; plant injury at 500 g/ha [13]: 20%; Corn plant response rating (crop injury, 0 = no effect, 100 = complete kill) at 125 g/ha [14]: 0%; Corn plant response rating (crop injury, 0 = no effect, 100 = complete kill) at 500 g/ha [14]: 20%; pest or weed control at 125 g/ha [15]: 0%; pest or weed control at 500 g/ha [15]: 20%; pest or weed control at 125 g/ha [16]: 0%; pest or weed control at 500 g/ha [16]: 0%; plant injury at 250 g/ha [17]: 0%; pest or weed control at 250 g/ha [18]: 0%; pest or weed control at 250 g/ha [19]: 0%; pest or weed control at 250 g/ha [20]: 0% |

Reference: patent US9944602B2, “Piperidinone herbicides” (E. I. DU PONT DE NEMOURS AND COMPANY, priority 2014, dated 2018)
